Assay results published in patent publication US5972883A, “Method for the treatment of neurodegenerative diseases by administering VIP, an analogue, fragment or a conjugate thereof” (Yeda Research and Development Co. Ltd., priority 1993, dated 1999).
Values joined by “and” are separate entries in the source; they are usually repeats but may differ in a detail not shown here. Equal entries are not always repeated. “Also recorded” adds a separate entry of the source.

How the values were obtained:
[1] = tested on: electrically blocked neurons (mouse spinal cord neurons); format: cell-based
VIP receptor = assay: Affinity studies: displacement of radiolabeled VIP on cerebral cortical astrocytes; format: binding
Protocol: (a) Cerebral cortical astrocytes were obtained and cultured as described before^16,17). Binding studies were performed on intact cells, 5-7 days after replating at 4° C. in phosphate buffered saline containing 0.1% bovine serum albumin. Cells were divided into two groups. Group 1 was incubated with varying concentrations of St-VIP and Group 2 was incubated with varying concentrations of St-Nle^17 -VIP. After 30 min. incubation with the VIP analogue, 50 pM of ^125 -VIP^(14) was added and incubated for an hour. The media was then removed and cells were washed three times by rapid addition and removal of 1 ml phosphate buffered saline at 4° C. The labeled cells were then dissolved in 0.2 N NaOH and transferred for radioactivity counting by an automatic gamma counter (Wallac 1470 Wizard).

[2] = tested on: learning and memory in AF64A-injected rats; assay: Morris water maze, AF64A animal model of Alzheimer, I.C.V. drug administration; format: in vivo, rat; conditions: 100 ng I.C.V. daily
Protocol: 13 Male rats were injected intracerebroventricularly (I.C.V.) at a rate of 0.21 μl/min, using plastic tubing (PE-20) attached to 25G needle. 5 rats serving as control received an injection of saline (2 μl/side), 8 other animals received injections of ethylcholine aziridium (AF64A) (3 nmol/2 μl/side). AF64A is an inducer of cholinergic hypofunctions which mimics some of the cholinergic hypofunction reported in Alzheimer's disease and is used for preparing animal models of Alzheimer^(22).
Animals were cannulated following injection to allow I.C.V. drug application and left to recover for a week. Learning and memory tests were conducted using the swim maze test. The 8 animals injected with AF64A were divided into two equal groups and were thereafter injected daily with either saline or 100 ng I.C.V. of St-Nle^17 -VIP. The five control rats (see above) were injected with saline. Following seven injection days, behavioral assays were conducted for an additional 14 days on both control and test animals. […]
(§1) Rats were placed in a circular pool, 1.26 m in diameter, 0.2 m deep, equipped with a clear plexiglas column, with a 13.3 cm platform reaching just below the surface of the water (22-24° C.). […] The latency of reaching the platform was recorded for each rat (in seconds) and the changes over days of training were graphed, which reflect learning and memory.

[3] = tested on: learning and memory in AF64A-treated rats; assay: Morris water maze, AF64A animal model of Alzheimer, nasal drug administration; format: in vivo, rat; conditions: daily nasal administration (St-Nle17-VIP 70 μg/40 μl; peptide 6 50 μg/40 μl)
Protocol: 8 Male rats were all treated with AF64A as described above. 10 days after AF64A administration 5 animals received daily nasal administration of St-Nle^17 -VIP dissolved in 10% sefsol and 40% isopropanol at a concentration of 70 μg/40 μl (20 μl administered through each nostril). 3 Animals received daily nasal administration of 50 μg/40 μI of peptide 6, (20 μl/nostril) dissolved in 10% sefsol and 40% isopropanol. 6 Control animals received daily nasal administration of 10% sefsol and 40% isopropanol at an amount of 40 μl/day (20 μl nostril). The animals were partially anesthetized by diethylether prior to nasal administration. Both control and test animals were daily treated with 50,000 units of durabiotic antibiotics to avoid infection. Following 7 days of nasal administration behavioral tests were conducted on both control and test animals for an additional 8 days. […]
as §1

[4] = tested on: learning and memory in old rats; assay: Learning and memory in old animals (water pool), nasal administration; format: in vivo, rat; conditions: rats aged 18-20 months, nasal 100 μg/40 μl/day
Protocol: 6 Male rats aged 18-20 months were divided into hvo groups. Group 1 received daily nasal administrations of St-Nle^17 -VIP dissolved in 10% sefsol at 40% isopropanol at a dose of 100 μg/40 μl/day (20 μl/nostril). Control animals were treated with daily nasal administration of 40 μl/day of 10% sefsol and 40% isopropanol (20 μl/nostril). The administration was carried out after partial anesthetization by diethylether. Animals were thus treated for 7-19 days and then were tested by placing them in a water pool as described above.

[5] = Biodistribution following intranasal administration of radioiodinated peptide; format: in vivo, rat; conditions: rats
Protocol: St-Nle^17 -VIP was labeled with radioactive iodine and 3×10^6cpn/2 μl/rat of the labeled substance were applied intranasally to 250-300 g rats. Animals were sacrificed 15 mins. following drug administration.
Radioactive tissue samples were then homogenized and subjected to centrifugation (5,400×g for 25 mins.). Supernatants were then subjected to HPLC analysis against St-Nle^17 -VIP as a marker. Elution was carried out using acetonitrile gradient at fraction 30. Samples were then weighed and monitored for radioactivity in a gamma counter. To assess for the integrity of the incorporated St-Nle^17 -VIP radioactive tissue, supernatants were subjected to HPLC analysis. Radioactive tissue samples were hornogenized, subjected to centrifugation and supernatnants analyzed by HPLC fractionation against St-Nle-VIP as a marker (eluting using an acetonitrile gradient at fraction 30).

Sprague Dawley rats [6] = assay: Single dose toxicity, orally administered; format: in vivo, rat
Description: The single dose toxicity of St-Nle^17 -VIP administered orally was investigated in 4 groups of six male and six female rats (Sprague Dawley (S.D.) strain, purchased from Levinstein, Yokneam, Israel.)

Sprague Dawley rats [7] = assay: Single dose toxicity, intravenously injected (tail vein); format: in vivo, rat
Description: The single dose toxicity of St-Nle^17 -VIP injected intravenously, in to the tail vein, was investigated in 4 groups of six male and six female rats (Sprague Dawley (S.D.) strain, purchased from Levinstein, Yokneam, Israel).

[8] = Stability of test material; format: physicochemical
[9] = Pharmacological experimentation: biologically active dose; format: in vivo; conditions: rat
Protocol: The logic of the dose design was as follows: pharmacological experimentation has shown that the biologically active dose is 7 μg per rat. The dose of 1000× the biologically active dose was chosen for this experiment.

Sprague Dawley rats [10] = assay: Repeated dose toxicity, topically applied, 13 weeks
[11] = tested on: Neurons from rat cerebral cortex treated with β-amyloid peptide fragment 25-35; assay: Survival of neurons treated with fragment 25-35 of β-amyloid peptide
[12] = displacement of radiolabeled VIP, intact astrocytes, 4° C.
[13] = i.v., 7 μg/rat + vehicle (group 3)
[14] = i.v., 7,000 μg/rat + vehicle (group 4)

With “Stearoyl-noricucine^17 -VIP [St-Nle^17 -VIP]” the “potency relative to native VIP in protecting electrically blocked cells from death” value [1] was “about 100 fold”, the “peak of active concentrations” value ([1]; 1 μM tetrodotoxin) was “broadening of the peak of active concentrations” and the “affinity to the high affinity receptor relative to VIP” value (VIP receptor; VIP value from reference 19) was “about 100 fold”. For the same substance, the “affinity relative to St-VIP, high concentration zone (low affinity zone)” value (VIP receptor; [12]) was 10 fold, the “affinity relative to St-VIP, low concentration (high affinity) zone” value (VIP receptor; [12]) was 10 fold and the “learning and memory (latency of reaching the platform)” value (from here on “learning and memory”) [2] was “showed recovery of the learning and memory abilities, essentially similar to that of control animals”. The “learning and memory” value [3] was “control animals (.quadrature.) show smaller improvement in the latency of reaching the platform”, the “learning and memory” value [4] was “showed a greater improvement in the latency of reaching the platform over time as compared to control untreated animals” and the “distribution to brain after nasal administration” value ([5]; 15 mins. after intranasal administration) was “able to reach the brain”. For the same substance, the “integrity of peptide in tissue (HPLC of radioactive supernatants)” value ([5]; intranasal) was “reaches its target organs in an active, intact form”, the “body weight gain and food consumption” value (Sprague Dawley rats [6]; oral single dose) was “normal body weight gain” and the side effects (Sprague Dawley rats [6]; oral single dose) was “No necrotic reactions, or any other side effects were observed”. For the same substance, the mortality (Sprague Dawley rats [6]; oral single dose, up to 7000 μg/rat) was “No mortality occurred”, the “acute oral LD50” value (Sprague Dawley rats [6]; oral, rat) was “greater than 7000 μg/rat” and the “animals with necrotic reaction at the site of injection (tail skin)” value (Sprague Dawley rats [7]; [13]) was 58%. For the same substance, the mortality (Sprague Dawley rats [7]; [13]) was “No mortality occurred in groups 1 and 3”, the “animals with necrotic reaction at the site of injection (tail skin)” value (Sprague Dawley rats [7]; [14]) was “all the animals” and the mortality (Sprague Dawley rats [7]; [14]) was “Seven rats (3 male and 4 female out of 12) died”. The “time of death after administration” value (Sprague Dawley rats [7]; [14]) was at most 3 h, the “other side effects in surviving rats” value (Sprague Dawley rats [7]; i.v., all groups) was “No other side effects were observed” and the “body weight gain versus vehicle control” value (Sprague Dawley rats [7]; i.v., two weeks study period) was “increased weight gain”. For the same substance, the “acute intravenous LD50, combined males and females” value (Sprague Dawley rats [7]; i.v., with vehicle, combined males and females) was “less than 7,000 μg”, the “acute intravenous LD50, males” value (Sprague Dawley rats [7]; i.v., with vehicle, male rats) was 7,000 μg/male rat and the “stability, powder” value [8] was “for a year”. The biologically active dose [9] was 7 μg per rat, the “body weight gain or food consumption” value (Sprague Dawley rats [10]; topical daily) was “No significant differences were detected” and the “clinical pathology (hematology, clinical chemistry)” value (Sprague Dawley rats [10]; topical daily) was “No dose related or sex related biologically meaningful treatment effects were detected”. For the same substance, the organ weight analysis (Sprague Dawley rats [10]; topical daily) was “No treatment related differences were noted”, the adverse effects (Sprague Dawley rats [10]; topical daily for 13 weeks, 7, 700, 3500 μg) was “No dose related adverse effects were detected; also recorded: did not cause any serious adverse effects at any of the dosages tested” and the mortality (Sprague Dawley rats [10]; topical daily, 7, 700, 3500 μg) was “No mortality associated with drug application was noted”. For the same substance, the “most effective protective concentration (peak activity) against β-amyloid associated death” value ([11]; 25 μM β-amyloid fragment 25-35) was 10^-13 M, the “protection of neurons from β-amyloid peptide fragment toxicity” value ([11]; 25 μM β-amyloid fragment 25-35, 5 days) was “able to protect neurons from the toxic effect of β-amyloid peptide fragment at all concentrations tested” and the “concentrations protecting also against naturally occurring cell death” value ([11]; FIG. 7 experiment) was 10^-10 M and 10^-9 M.
